In the kinase profiling compilation of Christmann-Franck et al. (2016):

How the values were obtained:
Experiment in all cases: radiometric filter-binding kinase assay
[1] = target: MARK1 (human) (UniProt Q9P0L2); conditions: compound 100.0 µM; ATP 20 µM
[2] = target: TAOK1 (human) (UniProt Q7L7X3); conditions: compound 100.0 µM; ATP 20 µM
[3] = system: RPS6KB1 (human), P23443 [T412E]; conditions: compound 100.0 µM; ATP 20 µM
[4] = target: PAK4 (human) (UniProt O96013); conditions: compound 100.0 µM; ATP 5 µM
[5] = target: EEF2K (human) (UniProt O00418); conditions: compound 100.0 µM; ATP 5 µM
[6] = target: MAP3K11 (human) (UniProt Q16584); conditions: compound 100.0 µM; ATP 20 µM
[7] = target: MAPKAPK5 (human) (UniProt Q8IW41); conditions: compound 100.0 µM; ATP 20 µM
[8] = target: PIM3 (human) (UniProt Q86V86); conditions: compound 100.0 µM; ATP 20 µM
[9] = target: AURKB (human) (UniProt Q96GD4); conditions: compound 100.0 µM; ATP 20 µM
[10] = system: PAK2 (human), Q13177 [T402E]; conditions: compound 100.0 µM; ATP 20 µM
[11] = target: ABL1 (human) (UniProt P00519); conditions: compound 100.0 µM; ATP 5 µM
[12] = target: ZAP70 (human) (UniProt P43403); conditions: compound 100.0 µM; ATP 5 µM
[13] = target: MAPK8 (human) (UniProt P45983); conditions: compound 100.0 µM; ATP 20 µM
[14] = target: MAP3K7 TAB1 (human) (UniProt Q15750+O43318); conditions: compound 100.0 µM; ATP 5 µM
[15] = target: TTK (human) (UniProt P33981); conditions: compound 100.0 µM; ATP 20 µM
[16] = target: MAPK3 (human) (UniProt P27361); conditions: compound 100.0 µM; ATP 5 µM
Chain of MAPK3 (human) (P27361 whole entry, looked up): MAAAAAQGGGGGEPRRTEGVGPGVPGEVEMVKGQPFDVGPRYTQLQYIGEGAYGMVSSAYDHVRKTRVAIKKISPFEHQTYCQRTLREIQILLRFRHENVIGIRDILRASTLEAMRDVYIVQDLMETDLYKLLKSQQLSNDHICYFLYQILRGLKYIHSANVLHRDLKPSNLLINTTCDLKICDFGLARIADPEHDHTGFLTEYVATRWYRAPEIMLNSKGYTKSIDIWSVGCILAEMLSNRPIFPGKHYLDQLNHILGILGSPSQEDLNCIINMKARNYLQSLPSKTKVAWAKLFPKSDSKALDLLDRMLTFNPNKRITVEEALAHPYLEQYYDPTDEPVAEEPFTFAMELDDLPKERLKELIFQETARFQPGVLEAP

[17] = target: DAPK1 (human) (UniProt P53355); conditions: compound 100.0 µM; ATP 5 µM
Chain of DAPK1 (human) (P53355 whole entry, looked up): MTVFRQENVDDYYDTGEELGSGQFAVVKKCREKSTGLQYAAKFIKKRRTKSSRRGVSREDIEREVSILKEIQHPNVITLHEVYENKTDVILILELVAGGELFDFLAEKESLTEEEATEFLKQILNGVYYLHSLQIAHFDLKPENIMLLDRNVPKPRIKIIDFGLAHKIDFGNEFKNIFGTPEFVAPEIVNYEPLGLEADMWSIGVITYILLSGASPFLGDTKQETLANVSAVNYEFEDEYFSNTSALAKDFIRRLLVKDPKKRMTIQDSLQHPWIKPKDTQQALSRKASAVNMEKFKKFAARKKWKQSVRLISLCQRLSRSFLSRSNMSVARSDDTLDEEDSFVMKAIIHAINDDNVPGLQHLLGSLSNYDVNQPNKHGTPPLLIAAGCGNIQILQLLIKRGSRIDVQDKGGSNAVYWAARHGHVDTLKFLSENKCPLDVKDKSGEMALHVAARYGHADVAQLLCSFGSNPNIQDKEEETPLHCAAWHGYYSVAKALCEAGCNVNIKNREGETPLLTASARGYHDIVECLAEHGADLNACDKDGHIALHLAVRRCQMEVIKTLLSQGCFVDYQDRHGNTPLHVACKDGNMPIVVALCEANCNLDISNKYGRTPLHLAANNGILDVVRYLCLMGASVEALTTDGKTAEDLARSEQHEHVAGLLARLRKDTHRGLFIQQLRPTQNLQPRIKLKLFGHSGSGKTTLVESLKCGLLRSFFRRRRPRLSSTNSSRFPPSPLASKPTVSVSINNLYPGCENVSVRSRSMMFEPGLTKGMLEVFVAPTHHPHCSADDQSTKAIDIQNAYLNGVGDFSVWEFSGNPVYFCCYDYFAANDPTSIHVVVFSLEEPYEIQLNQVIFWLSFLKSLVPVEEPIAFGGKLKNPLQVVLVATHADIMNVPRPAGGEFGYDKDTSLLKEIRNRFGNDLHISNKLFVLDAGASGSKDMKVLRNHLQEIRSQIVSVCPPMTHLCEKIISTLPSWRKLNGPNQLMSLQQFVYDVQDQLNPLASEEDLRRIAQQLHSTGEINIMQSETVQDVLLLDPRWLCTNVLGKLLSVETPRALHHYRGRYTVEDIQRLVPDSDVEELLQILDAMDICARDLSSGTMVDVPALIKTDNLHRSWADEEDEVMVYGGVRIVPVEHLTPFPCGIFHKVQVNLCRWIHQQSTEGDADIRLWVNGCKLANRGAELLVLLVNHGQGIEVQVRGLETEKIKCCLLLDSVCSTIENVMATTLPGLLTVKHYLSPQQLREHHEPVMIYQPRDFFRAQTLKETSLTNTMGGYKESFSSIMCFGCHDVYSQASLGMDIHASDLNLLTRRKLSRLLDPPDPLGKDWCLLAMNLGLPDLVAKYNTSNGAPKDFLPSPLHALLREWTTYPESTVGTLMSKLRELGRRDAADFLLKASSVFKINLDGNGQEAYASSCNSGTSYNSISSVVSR

[18] = target: INSRR (human) (UniProt P14616); conditions: compound 100.0 µM; ATP 5 µM
[19] = system: LCK (mouse); conditions: compound 100.0 µM; ATP 50 µM; accession and sequence are those of the human protein
[20] = target: MAP3K5 (human) (UniProt Q99683); conditions: compound 100.0 µM; ATP 50 µM
[21] = target: CLK2 (human) (UniProt P49760); conditions: compound 100.0 µM; ATP 5 µM
[22] = target: EPHA4 (human) (UniProt P54764); conditions: compound 100.0 µM; ATP 50 µM
Chain of EPHA4 (human) (P54764 whole entry, looked up): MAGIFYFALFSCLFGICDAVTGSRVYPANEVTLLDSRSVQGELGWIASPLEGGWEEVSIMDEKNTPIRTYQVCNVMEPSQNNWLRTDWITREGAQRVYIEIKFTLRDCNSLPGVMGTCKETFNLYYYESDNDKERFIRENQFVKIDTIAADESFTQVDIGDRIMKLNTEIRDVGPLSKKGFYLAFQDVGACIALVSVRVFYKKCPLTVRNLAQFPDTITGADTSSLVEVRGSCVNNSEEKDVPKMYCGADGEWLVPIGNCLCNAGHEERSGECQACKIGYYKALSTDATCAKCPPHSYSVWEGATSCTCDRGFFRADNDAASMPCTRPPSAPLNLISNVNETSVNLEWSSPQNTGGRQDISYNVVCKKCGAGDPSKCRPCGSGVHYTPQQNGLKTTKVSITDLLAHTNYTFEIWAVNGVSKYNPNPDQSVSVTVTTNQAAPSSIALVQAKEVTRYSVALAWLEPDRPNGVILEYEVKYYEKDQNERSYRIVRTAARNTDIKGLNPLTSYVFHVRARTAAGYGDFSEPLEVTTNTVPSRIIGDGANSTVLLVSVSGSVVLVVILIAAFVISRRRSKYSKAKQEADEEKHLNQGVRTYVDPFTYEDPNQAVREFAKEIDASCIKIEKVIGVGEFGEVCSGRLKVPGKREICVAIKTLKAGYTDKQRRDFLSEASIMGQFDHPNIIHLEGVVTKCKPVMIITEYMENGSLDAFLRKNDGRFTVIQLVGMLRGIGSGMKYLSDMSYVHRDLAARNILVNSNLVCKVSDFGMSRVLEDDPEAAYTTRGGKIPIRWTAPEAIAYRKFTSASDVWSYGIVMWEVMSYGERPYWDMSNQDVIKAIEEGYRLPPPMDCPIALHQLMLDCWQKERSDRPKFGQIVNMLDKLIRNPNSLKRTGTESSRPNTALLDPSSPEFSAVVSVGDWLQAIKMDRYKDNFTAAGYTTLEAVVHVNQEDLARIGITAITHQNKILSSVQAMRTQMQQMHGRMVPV

[23] = target: MKNK2 (human) (UniProt Q9HBH9); conditions: compound 100.0 µM; ATP 50 µM
[24] = target: PDPK1 (human) (UniProt O15530); conditions: compound 100.0 µM
[25] = target: ERBB4 (human) (UniProt Q15303); conditions: compound 100.0 µM; ATP 5 µM
[26] = target: IRAK4 (human) (UniProt Q9NWZ3); conditions: compound 100.0 µM; ATP 20 µM
[27] = target: CaMK1 (human) (UniProt Q14012); conditions: compound 100.0 µM; ATP 50 µM
[28] = target: HIPK3 (human) (UniProt Q9H422); conditions: compound 100.0 µM; ATP 20 µM
[29] = target: AURKA (human) (UniProt O14965); conditions: compound 100.0 µM; ATP 5 µM
[30] = target: RPS6KA1 KD1 KD2 (human) (UniProt Q15418); conditions: compound 100.0 µM; ATP 50 µM
[31] = target: MAPK1 (human) (UniProt P28482); conditions: compound 100.0 µM; ATP 20 µM
[32] = target: MAP2K1 (human) (UniProt Q02750); conditions: compound 100.0 µM; ATP 5 µM
Chain of MAP2K1 (human) (Q02750 whole entry, looked up): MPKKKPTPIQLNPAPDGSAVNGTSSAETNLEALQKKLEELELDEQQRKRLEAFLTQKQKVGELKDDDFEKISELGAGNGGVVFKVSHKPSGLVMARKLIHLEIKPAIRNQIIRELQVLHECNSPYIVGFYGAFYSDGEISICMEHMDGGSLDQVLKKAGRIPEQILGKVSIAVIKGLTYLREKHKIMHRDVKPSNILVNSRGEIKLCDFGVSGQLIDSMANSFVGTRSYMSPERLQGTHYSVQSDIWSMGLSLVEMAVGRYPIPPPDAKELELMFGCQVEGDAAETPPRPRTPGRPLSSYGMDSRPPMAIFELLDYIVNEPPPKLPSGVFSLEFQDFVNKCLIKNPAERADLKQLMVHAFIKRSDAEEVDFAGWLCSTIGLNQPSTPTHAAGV

[33] = target: HIPK2 (human) (UniProt Q9H2X6); conditions: compound 100.0 µM; ATP 5 µM
[34] = target: MAPK10 (human) (UniProt P53779); conditions: compound 100.0 µM; ATP 20 µM
[35] = target: CSK (human) (UniProt P41240); conditions: compound 100.0 µM; ATP 20 µM
[36] = target: BRSK1 (human) (UniProt Q8TDC3); conditions: compound 100.0 µM; ATP 20 µM
[37] = target: MARK2 (human) (UniProt Q7KZI7); conditions: compound 100.0 µM; ATP 20 µM
Chain of MARK2 (human) (Q7KZI7 whole entry, looked up): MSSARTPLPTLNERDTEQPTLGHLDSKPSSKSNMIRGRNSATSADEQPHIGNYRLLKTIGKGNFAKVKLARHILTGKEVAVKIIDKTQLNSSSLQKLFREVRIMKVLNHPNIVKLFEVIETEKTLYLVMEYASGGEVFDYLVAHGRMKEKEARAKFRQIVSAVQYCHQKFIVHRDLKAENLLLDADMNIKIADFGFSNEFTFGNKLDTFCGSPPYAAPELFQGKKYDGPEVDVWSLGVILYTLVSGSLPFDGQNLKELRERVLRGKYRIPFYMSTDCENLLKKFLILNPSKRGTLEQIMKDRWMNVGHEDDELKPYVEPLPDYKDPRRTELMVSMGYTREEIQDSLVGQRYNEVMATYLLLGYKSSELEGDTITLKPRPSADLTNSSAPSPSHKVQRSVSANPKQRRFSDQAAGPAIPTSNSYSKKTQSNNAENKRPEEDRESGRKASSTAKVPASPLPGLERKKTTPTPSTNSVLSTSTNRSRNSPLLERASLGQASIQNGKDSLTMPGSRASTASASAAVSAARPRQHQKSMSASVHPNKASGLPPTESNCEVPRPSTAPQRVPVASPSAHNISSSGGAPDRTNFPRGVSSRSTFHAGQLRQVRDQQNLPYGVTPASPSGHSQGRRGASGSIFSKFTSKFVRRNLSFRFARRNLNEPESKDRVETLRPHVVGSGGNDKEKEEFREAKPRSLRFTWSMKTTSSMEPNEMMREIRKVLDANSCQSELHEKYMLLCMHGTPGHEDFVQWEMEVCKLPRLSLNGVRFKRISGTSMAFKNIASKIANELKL

[38] = target: RIPK2 (human) (UniProt O43353); conditions: compound 100.0 µM; ATP 20 µM
[39] = target: CSNK2A1 (human) (UniProt P68400); conditions: compound 100.0 µM; ATP 5 µM

Chain of RPS6KB1 (human), P23443 [T412E] (P23443 whole entry T412E, looked up): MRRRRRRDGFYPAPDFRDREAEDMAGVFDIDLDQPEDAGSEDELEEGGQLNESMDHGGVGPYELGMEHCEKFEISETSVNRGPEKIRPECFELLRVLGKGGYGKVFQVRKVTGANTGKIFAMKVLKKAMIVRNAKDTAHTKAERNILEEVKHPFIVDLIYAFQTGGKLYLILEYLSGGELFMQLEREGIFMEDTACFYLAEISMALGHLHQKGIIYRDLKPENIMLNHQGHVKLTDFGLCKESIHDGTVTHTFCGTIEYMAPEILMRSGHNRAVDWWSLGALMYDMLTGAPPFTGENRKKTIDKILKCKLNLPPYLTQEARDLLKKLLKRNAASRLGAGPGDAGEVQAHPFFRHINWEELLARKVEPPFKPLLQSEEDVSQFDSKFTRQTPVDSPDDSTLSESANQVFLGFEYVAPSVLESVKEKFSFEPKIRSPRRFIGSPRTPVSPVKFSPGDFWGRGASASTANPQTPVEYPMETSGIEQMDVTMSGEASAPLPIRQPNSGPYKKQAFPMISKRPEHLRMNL

Row | SMILES | inhibition [1] [%] | inhibition [2] [%] | inhibition [3] [%] | inhibition [4] [%] | inhibition [5] [%] | inhibition [6] [%] | inhibition [7] [%] | inhibition [8] [%] | inhibition [9] [%] | inhibition [10] [%] | inhibition [11] [%] | inhibition [12] [%] | inhibition [13] [%] | inhibition [14] [%] | inhibition [15] [%] | inhibition [16] [%] | inhibition [17] [%] | inhibition [18] [%] | inhibition [19] [%] | inhibition [20] [%] | other results
1 | CC1CN(c2nc3ccccn3c(=O)c2N)CC(C)O1 (stereo not given) | 26 | 0 | 0 | 0 | 35 | 0 | 75 | 1 | 32 | 3 | 2 | 38 | 14 | 0 | 3 | 0 | 0 | 1 | 2 | 4 | inhibition [21]: 57%; inhibition [22]: 16%; inhibition [23]: 0%; inhibition ([24]; ATP 20 µM): 31%; inhibition ([24]; ATP 50 µM): 26%; inhibition [25]: 28%; inhibition [26]: 3%; inhibition [27]: 35%; inhibition [28]: 0%; inhibition [29]: 2%; inhibition [30]: 0%; inhibition [31]: 12%; inhibition [32]: 7%; inhibition [33]: 0%; inhibition [34]: 9%; inhibition [35]: 0%; inhibition [36]: 12%; inhibition [37]: 13%; inhibition [38]: 28%; inhibition [39]: 97%
2 | CC(C)(C)Nc1c(COCc2ccccc2)nc2[nH]cnn12 | 0 | 0 | 0 | 0 | 0 | 0 | 44 | 18 | 12 | 14 | 11 | 0 | 2 | 31 | 7 | 1 | 14 | 4 | 5 | 2 | inhibition [21]: 43%; inhibition [22]: 4%; inhibition [23]: 0%; inhibition ([24]; ATP 20 µM): 13%; inhibition ([24]; ATP 50 µM): 8%; inhibition [25]: 53%; inhibition [26]: 0%; inhibition [27]: 83%; inhibition [28]: 1%; inhibition [29]: 5%; inhibition [30]: 3%; inhibition [31]: 0%; inhibition [32]: 0%; inhibition [33]: 18%; inhibition [34]: 0%; inhibition [35]: 0%; inhibition [36]: 0%; inhibition [37]: 13%; inhibition [38]: 13%; inhibition [39]: 5%
3 | CC(C)(C)Nc1c(C2CC2)nc2[nH]cnn12 | 0 | 0 | 0 | 0 | 18 | 0 | 13 | 0 | 34 | 10 | 0 | 1 | 0 | 3 | 10 | 0 | 0 | 0 | 0 | 4 | inhibition [21]: 34%; inhibition [22]: 9%; inhibition [23]: 9%; inhibition ([24]; ATP 20 µM): 3%; inhibition ([24]; ATP 50 µM): 11%; inhibition [25]: 19%; inhibition [26]: 0%; inhibition [27]: 22%; inhibition [28]: 0%; inhibition [29]: 16%; inhibition [30]: 3%; inhibition [31]: 0%; inhibition [32]: 0%; inhibition [33]: 22%; inhibition [34]: 1%; inhibition [35]: 0%; inhibition [36]: 0%; inhibition [37]: 0%; inhibition [38]: 0%; inhibition [39]: 9%

Further lines, with some results ahead:

Row | inhibition [1] [%] | inhibition [2] [%] | inhibition [3] [%] | inhibition [4] [%] | inhibition [5] [%] | inhibition [6] [%] | inhibition [7] [%] | inhibition [8] [%] | inhibition [9] [%] | inhibition [10] [%] | inhibition [11] [%] | inhibition [12] [%] | inhibition [13] [%] | inhibition [14] [%] | inhibition [15] [%] | inhibition [16] [%] | inhibition [17] [%] | inhibition [18] [%] | inhibition [19] [%] | inhibition [20] [%] | SMILES | other results
4 | 15 | 12 | 8 | 0 | 13 | 0 | 26 | 26 | 29 | 56 | 14 | 0 | 7 | 3 | 20 | 31 | 0 | 24 | 37 | 15 | Cc1cccc(C)c1-c1cn2nc(N)nc2cn1 | inhibition [21]: 33%; inhibition [22]: 38%; inhibition [23]: 30%; inhibition ([24]; ATP 20 µM): 15%; inhibition ([24]; ATP 50 µM): 13%; inhibition [25]: 28%; inhibition [26]: 18%; inhibition [27]: 52%; inhibition [28]: 7%; inhibition [29]: 12%; inhibition [30]: 21%; inhibition [31]: 14%; inhibition [32]: 22%; inhibition [33]: 8%; inhibition [34]: 17%; inhibition [35]: 24%; inhibition [36]: 14%; inhibition [37]: 0%; inhibition [38]: 43%; inhibition [39]: 17%
5 | 0 | 37 | 9 | 89 | 36 | 89 | 34 | 55 | 76 | 31 | 72 | 0 | 30 | 86 | 34 | 31 | 31 | 71 | 75 | 32 | Nc1nc2cnc(-c3ccccc3)cn2n1 | inhibition [21]: 74%; inhibition [22]: 42%; inhibition [23]: 66%; inhibition ([24]; ATP 20 µM): 35%; inhibition ([24]; ATP 50 µM): 6%; inhibition [25]: 83%; inhibition [26]: 80%; inhibition [27]: 41%; inhibition [28]: 16%; inhibition [29]: 52%; inhibition [30]: 34%; inhibition [31]: 47%; inhibition [32]: 37%; inhibition [33]: 57%; inhibition [34]: 47%; inhibition [35]: 71%; inhibition [36]: 27%; inhibition [37]: 2%; inhibition [38]: 56%; inhibition [39]: 55%
